# From patent publication US4526898A, “Antihypertensive 4-(2-imidazolin-2-yl-amino)-2-methyl-indazole” (priority 1983, dated 1985)
# Where two headings read alike, the source gives them in different places.
# How the values were obtained:
# [1] = test system: drug-metabolising enzymes in the liver; assay: Induction of drug-metabolising enzymes in the liver; conditions: summary statement
# Mouse [2] = assay: Reduction in exploratory behaviour; type: in vivo; conditions: po, read-out: Effective dose: 50% reduction in exploratory behaviour
# Experimental: (§1) All tests were carried out under identical conditions according to standard testing methods. The animal species used, the route of administering the material to be tested, the type of test and the results obtained are shown in Table I hereunder.
# Toxicity LD50 in rat = conditions: in vivo
# Experimental: (§2) Toxicity values were determined applying identical standard methods. The data obtained are listed herebelow in Table II showing LD50 values as mg/kg body weight.
# Mouse [3] = assay: Inhibition of heat-induced tail flick; type: in vivo; conditions: po, read-out: Effective dose: 50% inhibition of heat-induced tail flick
# Experimental: as §1
# [4] = Blood-brain barrier penetration; conditions: summary statement
# [5] = test system: nephrogenic GOLDBLATT hypertensive rats; assay: Antihypertensive activity in nephrogenic GOLDBLATT hypertensive rats; type: in vivo, rat; conditions: for ED50: Rattus norvegicus, po, nephrogenic GOLDBLATT hypertensive rats
# Experimental: (§3) Antihypertensive activities for Sgd 101/75 of the invention and Sgd 230/75 of U.S. Pat. No. 4,036,976 were determined with nephrogenic GOLDBLATT hypertensive rats.
# [6] = as above; type: in vivo, rat; conditions: in vivo, po; GOLDBLATT hypertensive rats, p.o.; LD50 rat p.o.; read-out: therapeutic index LD50 /ED50
# Experimental: as §3
# [7] = test system: adrenaline vasopressor effect; assay: Adrenaline antagonism (adrenaline reversal) in anaesthetised cats; type: in vivo, cat; conditions: adrenaline i.v., 5 to 10 mg/kg b.w. intraduodenally
# Excerpt: Experimental hypertension was induced in anaesthetised cats by administering (i.v.) adrenaline.
# conscious cats = assay: Behavioural observation in conscious cats; type: in vivo, cat
# Mouse [8] = assay: Inhibition of acetic acid-induced writhing; type: in vivo; conditions: po, read-out: Effective dose: 50% inhibition of acetic acid-induced writhing
# Experimental: as §1
# Rat [9] = assay: Doubling of chloralhydrate sleeping time (CNS activity); type: in vivo; conditions: po, read-out: Effective dose: Double chloralhydrate sleeping time
# Experimental: as §1
# Mouse [10] = assay: Doubling of ethanol sleeping time (CNS activity); type: in vivo; conditions: po, read-out: Effective dose: Double ethanol sleeping time
# Experimental: as §1
# Rat [11] = assay: Reduction in tetrabenazine-induced ptosis; type: in vivo; conditions: po, read-out: Effective dose: 50% reduction in tetrabenazine-induced ptosis
# Experimental: as §1
# α2 -adrenoceptors = assay: Adrenoceptor activity, α2; conditions: summary statement
# Mouse [12] = assay: Doubling of hexobarbitone sodium sleeping time (CNS activity); type: in vivo; conditions: po, read-out: Effective dose: Double hexobarbitone sodium sleeping time
# Experimental: as §1
# α1 -adrenoceptors = assay: Adrenoceptor activity, α1; conditions: summary statement
# Toxicity LD50 in mouse = conditions: in vivo
# Experimental: as §2
# [13] = test system: extra-cellular calcium controlled α1s -adrenoceptors; assay: Adrenoceptor activity, α1s; conditions: summary statement
# Mouse [14] = assay: Reduction of 5HTP-induced head twitches; type: in vivo; conditions: sc, read-out: Effective dose: 50% reduction of 5HTP-induced head twitches
# Experimental: as §1
# [15] = test system: genetically fixed hypertension rats; conditions: p.o., prior art background; cited from earlier work
compound,measurement,setting,value
"Cn1cc2c(NC3=NCCN3)cccc2n1 [Sgd 101/75, 4-(2-imidazolin-2-yl-amino)-2-methyl-indazole]",Induction of drug-metabolising enzymes in the liver,[1],does not induce drug-metabolising enzymes in the liver
same,ED50,Mouse [2],72 mg/kg
same,LD50,Toxicity LD50 in rat; iv,69 mg/kg
same,LD50,Toxicity LD50 in rat; po,3220 mg/kg
same,ED50,Mouse [3],> 100 mg/kg
same,Penetration of the blood-brain barrier,[4],does not readily penetrate the blood-brain barrier
same,ED50,[5],4.2 mg/kg
same,anti-hypertensive activity relative to the prior art compound,"[5]; relative to Sgd 230/75, taking into account LD50 values (rat, p.o.)",about 190%
same,selectivity ratio,[6],767
same,Effect on adrenaline vasopressor effect (adrenaline reversal),[7],conversion of the vasopressor effect of adrenaline into a depressor response
same,Behavioural changes / CNS depression,conscious cats; 4 and 10 mg/kg i.p.,no apparent behavioural changes
same,ED50,Mouse [8],4.5 mg/kg
same,ED (2-fold sleeping time),Rat [9],> 100 mg/kg
same,ED (2-fold sleeping time),Mouse [10],> 100 mg/kg
same,ED50,Rat [11]; Rattus norvegicus,33 mg/kg
same,Activity on α2 -adrenoceptors,α2 -adrenoceptors,complete antagonist
same,ED (2-fold sleeping time),Mouse [12],> 100 mg/kg
same,Activity on α1 -adrenoceptors,α1 -adrenoceptors,partial agonist
same,LD50,Toxicity LD50 in mouse; iv,58 mg/kg
same,LD50,Toxicity LD50 in mouse; po,3900 mg/kg
same,Activity on α1s -adrenoceptors,[13],complete and highly specific agonist
same,ED50,Mouse [14],28 mg/kg
"Cn1ncc2c(NC3=NCCN3)cccc21 [Sgd 230/75, 4-(2-imidazolin-2-yl-amino)-1-methyl-indazole, reference compound]",LD50,Toxicity LD50 in rat; iv,90 mg/kg
same,LD50,Toxicity LD50 in rat; po,1200 mg/kg
same,ED50,[5],3 mg/kg
same,selectivity ratio,[6],400
same,therapeutic index LD50 /ED50,[15],800
same,LD50,Toxicity LD50 in mouse; iv,22 mg/kg
same,LD50,Toxicity LD50 in mouse; po,600 mg/kg
"Clc1cccc(Cl)c1N=C1NCCN1 [Clonidine, 2-((2,6-dichloro-phenyl)-imino)-imidazolidine, reference compound]",ED50,Mouse [2],0.12 mg/kg
same,ED50,Mouse [3],5 mg/kg
same,Behavioural changes / CNS depression,conscious cats; 1 mg/kg i.p.,signs of CNS depression
same,ED50,Mouse [8],0.07 mg/kg
same,ED (2-fold sleeping time),Rat [9],0.05 mg/kg
same,ED (2-fold sleeping time),Mouse [10],0.02 mg/kg
same,ED50,"Rat [11]; Rat, p.o.",0.3 mg/kg
same,ED (2-fold sleeping time),Mouse [12],0.3 mg/kg
same,ED50,Mouse [14],0.028 mg/kg
